From patent US12630545B2, “Crystal of compound X7 hydrochloride and its preparation method and application” (ORxes Therapeutics Co., Ltd., priority 2020, dated 2026) come the findings set out here.

Series [1] in a line: Equilibrium solubility in water. The class given is physicochemical. The following applies: for Crystal form transformation: XRPD of solid after 24 hours equilibrium in water; for pH: supernatant after 24 hours equilibrium in water. How it is done: As a comparison, the equilibrium solubility was also tested under the same conditions for crystal form C sample (prepared in Example 11), crystal form D sample (prepared in Example 12), and crystal form F sample (prepared in Example 13). The suspension of each crystal form (˜10 mg/mL) was prepared in the test, magnetically stirred at room temperature for 24 hours (rotating speed˜800 rpm) and then centrifuged (10000 rpm, 5 min). The solubility and pH were determined for the supernatant after filtration ([…] PTFE filter membrane) and XRPD (transmission) for the solid.

Series [2] is described as follows: Solid-state stability (HPLC purity, XRPD crystal form). The class given is physicochemical. How it is done:
For the solid samples separated under different conditions, the chemical stability was evaluated by determining purity using the HPLC method, and the physical stability was evaluated by determining the crystal form using the XRPD test.

Series [3] is described as follows: Hygroscopicity by dynamic vapor sorption (DVS). In kind it is physicochemical. As for the experimental part:
Dynamic vapor sorption (DVS) curves were created using DVS Intrinsic of SMS (Surface Measurement Systems). The relative humidity at 25° C. was corrected by the deliquescence points of LiCl, Mg (NO3)2, and KCl.

The test system of series [4] is 5-hydroxytryptamine (5-HT) receptor in rabbit vascular smooth muscle. Briefly: Antagonism of 5-HT cumulative contraction of rabbit aorta. The class given is cell-based. How it is done: (§1) After anesthetizing the rabbit, its chest was quickly cut open. The descending aorta, connective tissues, and surrounding adipose tissues were removed (if the serotonin receptor antagonistic test was carried out, a smooth stainless steel rod was used to remove the endothelial cells), and the aorta was cut into 3-5 mm vascular rings. Then, the steel wire hook was passed through the vascular ring, with one end fixed on the ventilation hook and the other end connected to the tension transducer and placed in a bath tube containing 20 ml of nutrient solution. The change in tension was recorded. The temperature was maintained in the bath tube at 37±0.5° C., and a mixed gas (95% O2+5% CO2) was introduced at the rate of 1-2 bubbles per second. The initial load of the specimen was 1.5 g. The nutrient solution was changed every 20 min, balanced for 2 h, and the test was started after the baseline became stable.
After the specimen tension became stable, the waveform was recorded and 5-HT added cumulatively in the bath tube (10^−7˜3×10^−4 mol/L) until reaching the maximum response, and the waveform was recorded again. […]
After the specimen tension became stable, a waveform was recorded and 5-HT cumulatively added in the bath tube (10^−7˜3×10^−4 mol/L) until reaching the maximum response, and the waveform was recorded again. […]

The subject of series [5] is α receptor in rabbit vascular smooth muscle. Briefly: Antagonism of norepinephrine cumulative contraction of rabbit aorta. The class given is cell-based. As for the experimental part: as §1
After the specimen tension became stable, a waveform was recorded and norepinephrine added cumulatively in the bath tube (10^−8˜6×10^−5 mol/L) until reaching the maximum response, and then, the waveform was recorded again. […]
After the specimen tension became stable, a waveform was recorded and norepinephrine added cumulatively in the bath tube (10^−8˜3×10^−3 mol/L) until reaching the maximum response, and then, the waveform was recorded. […]

For series [6], the system named is isolated rabbit vascular smooth muscle contraction induced by spasmodic agent AD. Briefly: Relaxation of isolated rabbit vascular smooth muscle contraction induced by spasmodic agent AD. The class given is cell-based. The following applies: Oryctolagus cuniculus; adrenaline hydrochloride 10^−5 mol/L; X7 1×10^−9˜1×10^−6 mol/L; read-out: −logEC50 to relax the rabbit aorta contraction by AD (converted). As for the experimental part: as §1, with “The initial load of the specimen was 1.5 g. The nutrient solution was changed every 20 min, balanced for 2 h, and the test was started after the baseline became stable.” left out
After the specimen tension became stable, a waveform was recorded, the spasmodic agent adrenaline hydrochloride (AD) (10^−5 mol/L) was added in the bath tube to induce contraction. […] When the maximum response of the next contraction was basically the same as that of the previous one, the prepared X7 solution (1×10^−9˜1×10^−6 mol/L) was added, and the waveform recorded. With the maximum relaxation response of X7 as 100%, the relaxation percentage of X7 at each concentration was calculated and the dose-effect curve plotted using the relaxation percentage of X7 as the vertical coordinate and the logarithm of each concentration as the horizontal coordinate. […]

Setting [7] is: room temperature, hydrochloride.
Setting [8] is: 3 conditions: sealed 80° C. 1 day, open 25° C./60% RH and 40° C./75% RH 1 week, hydrochloride.
Where [9] appears, read: equilibrium solubility in water, room temperature, 24 hours, hydrochloride.

Molecules are shown by their SMILES. “Also recorded” adds a separate entry of the source. Structures can show the parent of a compound that is named as a salt.

What is called solubility is how much of the substance goes into solution per volume. The low end stands for little dissolved substance, the high end for much dissolved substance. In general, Solubility refers to the dissolved amount per volume that the medium holds. A higher Solubility goes with a readily soluble substance.

In the case of `c1ccc2c(c1)nnn2CCCCN1CCN(c2nsc3ccccc23)CC1` [Crystal form A, 3-(4-(4-(1H-benzotriazol-1-yl)butyl)piperazin-1-yl) benzoisothiazole hydrochloride], in series [1] (hydrochloride), the Crystal form transformation entry was “No”. Besides, the Crystal form transformation entry in series [1] (listed as crystal form A, hydrochloride) is “remained unchanged”. Also, in series [1] (setting [7]), the pH is 4.6. This compound displayed a solubility at 24 h in series [1] (water, thermodynamic from solid, equilibrium solubility in water, room temperature, 24 hours) of 3800 µg/mL. Also, in series [2] (setting [8]), the “chemical purity change (chemical stability, HPLC)” value is “does not undergo crystal form transformation and chemical purity reduction; also recorded: no crystal form transformation or reduction of HPLC purity”; the “crystal form transformation (physical stability, XRPD)” value is “does not undergo crystal form transformation; also recorded: no crystal form transformation”. The “crystal form transformation after the DVS test” value in series [3] (25° C.) is given as “no crystal form transformation”. Also, the “water absorbed (DVS)” value in series [3] (25° C./80% RH) was found to be 0.08%. Further, in series [3] (DVS, 25° C./80% RH, China Pharmacopoeia 2015 guide), the hygroscopicity result was “no hygroscopicity”.

For `c1ccc2c(c1)nnn2CCCCN1CCN(c2nsc3ccccc23)CC1` [Crystal form B, 3-(4-(4-(1H-benzotriazol-1-yl)butyl)piperazin-1-yl) benzoisothiazole hydrochloride], the Crystal form transformation entry is reported as “No” in series [1] (hydrochloride) and “remained unchanged” in series [1] (listed as crystal form B, hydrochloride). The compound further returned a Solubility in series [1] (setting [9]) of 3400 µg/mL. Further, the pH in series [1] (setting [7]) came to 4.9. For the same compound, the “chemical purity change (chemical stability, HPLC)” value in series [2] (setting [8]) is given as “does not decrease”. For the same compound, the HPLC purity change result in series [2] (open container, 25° C./60% RH, 1 week) was “no change in crystal form or HPLC purity”. Further, the “crystal form change (physical stability, XRPD)” value in series [2] (open container, 25° C./60% RH, 1 week, hydrochloride) was “no change in crystal form”; in series [2] (open container, 25° C./60% RH, 1 week, listed as crystal form B, hydrochloride) it was “remains unchanged”. Moreover, in series [3] (adsorption process, 95% RH, 25° C.), the “water absorption (DVS)” value was found to be 12.5%. The “water absorbed (DVS)” value in series [3] (desorption process, 30% RH, 25° C.) is 0.4%; in series [3] (desorption process, 50% RH, 25° C.) it was 12.3%.

As to `c1ccc2c(c1)nnn2CCCCN1CCN(c2nsc3ccccc23)CC1` [Crystal form C, 3-(4-(4-(1H-benzotriazol-1-yl)butyl)piperazin-1-yl) benzoisothiazole hydrochloride], in series [1] (hydrochloride), the Crystal form transformation entry was “transformed into crystal form B”. This compound registered a Solubility in series [1] (setting [9]) of 3300 µg/mL. The compound further yielded a pH in series [1] (setting [7]) of 4.9.

Take `c1ccc2c(c1)nnn2CCCCN1CCN(c2nsc3ccccc23)CC1` [Crystal form D, 3-(4-(4-(1H-benzotriazol-1-yl)butyl)piperazin-1-yl) benzoisothiazole hydrochloride]: the Crystal form transformation entry in series [1] (listed as 0, hydrochloride) was “transformed into crystal form B”. This compound had a Solubility in series [1] (setting [9]) of 3100 µg/mL. The compound further yielded a pH in series [1] (setting [7]) of 4.9.

On to `c1ccc2c(c1)nnn2CCCCN1CCN(c2nsc3ccccc23)CC1` [Crystal form F, 3-(4-(4-(1H-benzotriazol-1-yl)butyl)piperazin-1-yl) benzoisothiazole hydrochloride], for which the Crystal form transformation result in series [1] (hydrochloride) is “transformed into crystal form B”. The Solubility in series [1] (setting [9]) was determined as 2900 µg/mL. In addition, in series [1] (setting [7]), the pH turned out to be 4.7.

As for `c1ccc2c(c1)nnn2CCCCN1CCN(c2nsc3ccccc23)CC1` [X7, 3-(4-(4-(1H-benzotriazol-1-yl)butyl)piperazin-1-yl) benzoisothiazole hydrochloride], the “PA2 to resist rabbit aorta contraction by 5HT” value in series [4] (X7 10^−7 mol/L, endothelium removed) is reported as 8.86±0.14. In series [5] (X7 3×10^−8 mol/L), the “PA2 to resist rabbit aorta contraction by norepinephrine” value turned out to be 7.98±0.04. The EC50 in series [6] was 8.51 nM.

For the compound `COc1cc2nc(N3CCN(C(=O)C4COc5ccccc5O4)CC3)nc(N)c2cc1OC` (stereo not shown) [doxazosin, reference compound], the “PA2 to resist rabbit aorta contraction by NA” value in series [5] (doxazosin 10^−7 mol/L) came out at 7.83±0.05.

As to `COc1cccc(CCc2ccccc2OCC(CN(C)C)OC(=O)CCC(=O)O)c1` (stereo not shown) [sarpogrelate, reference compound], the “PA2 to resist rabbit aorta contraction by 5-HT” value in series [4] (sarpogrelate 10^−6 mol/L) stood at 7.21±0.08.
